Test [1] concerns the target T1, SHP2 (Homo sapiens, UniProt Q06124).
T1 construct: the GST fusion of the PTP domains of SHP2, SHP1, and PTP1B were produced and purified as reported by us previously; GST; made in house
T1 sequence (Q06124 247-517 limits assumed): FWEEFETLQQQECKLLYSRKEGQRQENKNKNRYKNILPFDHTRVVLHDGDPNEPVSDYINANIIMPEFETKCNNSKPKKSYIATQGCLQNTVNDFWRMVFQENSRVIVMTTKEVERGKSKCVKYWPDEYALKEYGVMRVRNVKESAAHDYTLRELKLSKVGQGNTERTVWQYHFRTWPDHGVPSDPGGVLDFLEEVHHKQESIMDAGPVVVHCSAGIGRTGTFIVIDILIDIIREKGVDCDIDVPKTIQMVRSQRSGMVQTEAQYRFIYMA
Kind of test: PTPase assay, GST-fusion PTP domain of SHP2, DiFMUP substrate. Type of test: biochemical. As to the method:
After completion of synthesis, both CNBCA and CNBBA were purified on silica gel, and purity was determined by HPLC. The purified compounds were then tested for their effect on the SHP2 enzyme activity and on the activity of the selected control PTPs (SHP1 and PTP1B) by the phosphotyrosyl phosphatase (PTPase) assay as described previously.[30],[31] First, the GST fusion of the PTP domains of SHP2, SHP1, and PTP1B were produced and purified as reported by us previously.[32] The reactions were performed in a buffer containing 10 mM Tris-HCl (pH 7.2), 100 mM NaCl, 1 mM EDTA, 1 mM dithiothreitol (DTT), and 0.01% Tween-20. Briefly, CNBCA or CNBBA was added first in a serial dilution ranging from 100 μM to 97 nM followed by the enzymes (SHP2, SHP1, or PTP1B) to a final concentration of 1 nM. After 5 min of incubation at room temperature, the reactions were started by adding the artificial substrate DiFMUP (6,8-difluoro-4-methylumbelliferyl phosphate) to a final concentration of 20 μM for SHP2, 35 μM for SHP1, and 10 μM for PTP1B in a reaction volume of 100 μL; variations in DiFMUP concentrations reflect the reported Km values for the respective PTPs.[33] The complete mixture was incubated at 37 °C for 20 min, and fluorescence intensity was measured by the Synergy 4 plate reader at the excitation and emission wavelengths of 360 and 460 nm, respectively. The half inhibitory concentration (IC50) value of each compound was calculated and plotted using Graphpad Prism software.
We used the PTPase assay described previously[30],[31] to evaluate the effect of the newly synthesized compounds on the enzymatic activity of SHP2, SHP1, and PTP1B. The PTP domains of the indicated proteins were prepared as reported by us recently.[32] The artificial PTP substrate DiFMUP (6,8-Difluoro-4-Methylumbelliferyl Phosphate) was purchased from Invitrogen. The purified proteins were dialyzed into a phosphatase buffer containing 10 mM Tris-HCl ([…]), 100 mM NaCl, 1.0 mM EDTA, 1.0 mM dithiothreitol (DTT), and 0.01% Tween-20. Briefly, the PTPase reactions were performed in 100 μL volume containing 1 nM enzyme, inhibitors in serial dilutions (12 nM to 100 μM), and DiFMUP to a final concentration of 20 μM for SHP2, 35 μM for SHP1, and 10 μM for PTP1B. Differences in DiFMUP concentrations reflect the reported Km values for each PTP.[37] The mixtures were incubated at 37 °C for 20 min and transferred to 96 well plates, and the fluorescence intensity was measured by a Synergy 4 plate reader at the excitation and emission wavelengths of 360 and 460 nm, respectively. Graphpad Prism software was used to calculate the IC50 values.

The test system of test [2] is BT474 cells. Kind of test: Mammosphere formation in suspension culture, BT474. As to conditions: BT474, 500 nM, 10 days, versus vehicle. The class given is cell-based. As to the method:
(§1) Since SHP2 is essential for the growth and transformation of BC cells,[8],[9],[11] we determined the effect of SHP2 inhibition with CNBCA in 2D and 3D culture systems. For the effect on cell growth, BC cells (BT474 and MDA-MB468) were seeded in 2D culture and treated with a single concentration of CNBCA (500 nM), the concentration that provided a 50% inhibition of SHP2 mediated signaling in BT474 cells. Images were collected at the start and every 24 h for a total of 72 h (3 days). […] For effect on anchorage independent growth, approximately 10^6 cells were seeded in soft agar as described previously,[24] and treated with CNBCA at 500 nM concentration for 10 days with refeeding and adjustment of compound concentration. […] Finally, the effect of CNBCA on cancer stem cell properties was determined by the suspension assay, in which only cells with stem-like properties only can grow and form mammospheres.[7],[24],[36] Approximately 10^6 cells were seeded in nonadherent 6 cm plates and treated with CNBCA (500 nM) for 10 days with complementation of media and drug concentration.
To further evaluate the anti-breast cancer cell effect of CNBCA, we treated cells seeded in a suspension culture known as the mammosphere assay. In this assay, cells with cancer stem cell properties can grow and form sphere-like cellular aggregates known as mammospheres.[7],[38] […]

The test system of test [3] is BT474 cells. Nature of the test: Colony formation in soft agar, BT474. Type of test: cell-based. As to conditions: BT474, 500 nM, 10 days, versus vehicle. Here is the method:
as §1
For colony formation studies, we used the soft agar assay, which keeps cells anchorage independently, allowing determination on the transformation phenotype of cancer cells, including breast cancer cells.[11],[35] For this assay, we first prepared a 5% stock suspension in PBS by boiling it in a microwave. […]

Each structure is given as a SMILES string.

For `CCCCCCCCCOc1ccc(-c2ccc(C(=O)O)cc2)cc1CCCC(=O)O` [CNBCA, 3′-(3-carboxypropyl)-4′-(nonyloxy)-[1,1′-biphenyl]-4-carboxylic acid], in test [1] (PTP domain, 1 nM enzyme, 20 μM DiFMUP, 37 °C 20 min), the IC50 is 870 nM. In test [1] (SHP2 IC50 as reference), the “selectivity ratio SHP2 (reference)” value is 1.0. In addition, the fold difference in test [1] (SHP2 IC50 relative to CNBCA) was 1.0 fold. Besides, the mammosphere formation entry in test [2] is “fewer and smaller mammospheres”. In test [3], the “colony formation in soft agar” value was “fewer and smaller colonies”.

These data come from publication PMC10591299, “Targeting SHP2 with an Active Site Inhibitor Blocks Signaling and Breast Cancer Cell Phenotypes” (ACS Bio & Med Chem Au, 2023).
